For one molecule, Activity results are on record in ChEMBL document CHEMBL2176991 (J Med Chem, 2012).

The test system of assay [1] is LNCaP. Briefly: Cell cycle arrest in human LNCAP cells assessed as decrease in accumulation at S phase after 96 hrs by propidium iodide staining-based FACS flow cytometric analysis. It counts as functional. For orientation: Flow cytometry measures light scatter and fluorescence of single cells or particles in a stream.
For assay [2], the system named is LNCaP. Put plainly: Cell cycle arrest in human LNCAP cells assessed as accumulation at S phase at 100 uM after 96 hrs by propidium iodide staining-based FACS flow cytometric analysis (reference value: 15.6 +/- 1.3 %). It counts as functional.
For assay [3], the system named is LNCaP. Briefly: Cell cycle arrest in human LNCAP cells assessed as accumulation at S phase at 200 uM after 96 hrs by propidium iodide staining-based FACS flow cytometric analysis (reference value: 15.6 +/- 1.3 %). It counts as functional.
Assay [4] concerns LNCaP. Briefly: Cell cycle arrest in human LNCAP cells assessed as accumulation at G0/G1 phase after 96 hrs by propidium iodide staining-based FACS flow cytometric analysis.
Assay [5] has as its system LNCaP. Put plainly: Cell cycle arrest in human LNCAP cells assessed as accumulation at G2/M phase at 200 uM after 96 hrs by propidium iodide staining-based FACS flow cytometric analysis (reference value: 10.1 +/- […]). It counts as functional.
In assay [6] the test system is LNCaP. Put plainly: Cell cycle arrest in human LNCAP cells assessed as accumulation at sub G1 phase at 200 uM after 96 hrs by propidium iodide staining-based FACS flow cytometric analysis (reference value: 0.3 +/- 0.2 %). It counts as functional.

SMILES strings stand for the structures.

Consider `CC(=O)N[C@H](CC(C)C)C(=O)N[C@@H](CC(C)C)C(=O)N[C@@H](CC(C)C)C(=O)N[C@@H](CC(C)C)C(=O)N[C@@H](CCCNC(=N)N)C(=O)N[C@H](C(=O)N[C@@H](CCCCN)C(=O)N[C@@H](CCCNC(=N)N)C(N)=O)C(C)C`, for which the Activity entry in the assay on LNCaP [1] is “Dose-dependent effect”; with LNCaP [2], 11.8%; in the assay with LNCaP [3], 8.4%; in the assay with LNCaP [4] it was “Dose-dependent effect”; in the assay with LNCaP [5] it was 8.3%; in the assay with LNCaP [6] it was 11.8%.
